Laboratory results published in patent publication US20260070945A1, “MACROCYCLIC IMMUNOMODULATORS” (Bristol-Myers Squibb Company, priority 2022, published 2026).
pIC50: −log10 of the molar value. *1 amine or outer side, *2 acyl side, *3 side chain or, on linkers, in order; H or OH if unused. Where a SMILES comes first, the peptide text is derived from it. Bridges are numbered along the chain shown (N, C = ends). [ ]: non-standard residue; d: D form. The star is where a group is joined. ξ: configuration not given here. Phe(4-COOH) = N[C@@H](Cc1ccc(C(=O)O)cc1)C(=O)O; Bip = N[C@@H](Cc1ccc(-c2ccccc2)cc1)C(=O)O; Phe(4-CN) = N#Cc1ccc(C[C@H](N)C(=O)O)cc1; Phe(3-Me) = Cc1cccc(C[C@H](N)C(=O)O)c1; γGlu = O=C(O)[C@H](CCC(=O)[*:2])N[*:1]; NH(CH2)12COOH = O=C(O)CCCCCCCCCCCCN*; NMeAEEA = CN(CCOCCOCC(=O)[*:2])[*:1]; Val(3-OH) = CC(C)(O)[C@H](N)C(=O)O; aIle = CC[C@@H](C)[C@H](N)C(=O)O; hArg = N=C(N)NCCCC[C@H](N)C(=O)O; 4Pal = N[C@@H](Cc1ccncc1)C(=O)O; Cha = N[C@@H](CC1CCCCC1)C(=O)O; Cit = NC(=O)NCCC[C@H](N)C(=O)O; Ile(3ξ) = CCC(C)[C@H](N)C(=O)O; NMeN = CN[C@@H](CC(N)=O)C(=O)O; Thr(3ξ) = CC(O)[C@H](N)C(=O)O; 12Ado = NCCCCCCCCCCCC(=O)O; Carboxymethyl = O=C(O)C*; NMeA = CN[C@@H](C)C(=O)O; Orn = NCCC[C@H](N)C(=O)O; Aun = NCCCCCCCCCCC(=O)O; Dab = NCC[C@H](N)C(=O)O; AEEA = NCCOCCOCC(=O)O

molecular target: T1, PD-1/PD-L1 interaction (PE-labeled human PD-L1-Ig binding to Jurkat cell line over-expressing human PD-1) (Homo sapiens, UniProt Q15116); experiment: Jurkat-PD-1 Cell Binding High-Content Screening Assay (CBA); conditions: Jurkat-hPD-1 cells, PE-labeled PD-L1-Ig 20 nM final; read-out: Jurkat HPD1 PDL1 IC50
T1 construct: expressed in transfected cells; host or cells: Jurkat
How it was run: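 Compound is added first to the PD-1-expressing Jurkat cells and held 2 h at 37 °C in serum-containing DMEM. The fluorescent PD-L1 fusion follows at 20 nM final for 1 h. Fixed, Hoechst-stained cells are then imaged for bound label.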

T1 sequence (Q15116 25-288): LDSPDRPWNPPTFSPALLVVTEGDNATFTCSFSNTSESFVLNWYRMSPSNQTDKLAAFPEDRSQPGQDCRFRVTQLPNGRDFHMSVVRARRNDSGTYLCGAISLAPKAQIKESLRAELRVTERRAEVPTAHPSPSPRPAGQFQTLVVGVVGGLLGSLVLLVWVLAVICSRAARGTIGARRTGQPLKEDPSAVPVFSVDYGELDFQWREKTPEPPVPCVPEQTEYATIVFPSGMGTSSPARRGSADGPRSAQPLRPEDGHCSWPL

Row | SMILES | pIC50
1 | CC(=O)NCCCC[C@@H]1NC(=O)[C@H](Cc2ccc(-c3ccccc3)cc2)NC(=O)[C@H](C(C)C)NC(=O)[C@H](Cc2cccc(C)c2)NC(=O)[C@H](CC(=O)O)NC(=O)[C@H](Cc2ccc(OCC(=O)O)cc2)NC(=O)[C@H](C(C)O)NC(=O)CSC[C@@H](C(=O)N(C)CCOCCOCC(=O)NCCCCCCCCCCC(=O)O)NC(=O)[C@H](C(C)C)NC(=O)[C@H](C(C)C)NC(=O)[C@H](CC2CCCCC2)NC(=O)[C@H](CCN)NC(=O)[C@@H](CC(C)C)NC(=O)[C@H](C)N(C)C1=O (stereo partly drawn) [Example 2358] ({CH2CO}-[Thr(3ξ)]Y(Carboxymethyl)D[Phe(3-Me)]V[Bip]K(Ac)[NMeA][dL][Dab][Cha]VVC[NMeAEEA][Aun]-OH; thioether N-14) | 7.78
2 | CC[C@@H](C)[C@@H]1NC(=O)[C@H](Cc2ccc(-c3ccccc3)cc2)NC(=O)[C@H](C(C)C)NC(=O)[C@H](Cc2c[nH]c3ccccc23)NC(=O)[C@H](CC(=O)O)NC(=O)[C@H](Cc2ccc(O)cc2)NC(=O)[C@H](Cc2ccncc2)NC(=O)CSC[C@@H](C(=O)N[C@H](CC(N)=O)C(=O)NCCOCCOCC(=O)N[C@@H](CCC(=O)NCCOCCOCC(=O)N[C@@H](CCC(=O)NCCOCCOCC(=O)N[C@@H](CCCN)C(=O)NCCCCCCCCCCC(=O)O)C(=O)O)C(=O)O)NC(=O)[C@H](CO)NC(=O)[C@H](C(C)C)NC(=O)[C@H](CC2CCCCC2)NC(=O)[C@H](CC(N)=O)NC(=O)[C@@H](CC(C)C)NC(=O)[C@H](C)N(C)C1=O [Example 2020] ({CH2CO}-[4Pal]YDWV[Bip][aIle][NMeA][dL]N[Cha]VSC[dN][AEEA][γGlu][AEEA][γGlu][AEEA][Orn][Aun]-OH; thioether N-14) | 7.52
3 | CCC(C)[C@@H]1NC(=O)[C@H](Cc2ccc(-c3ccccc3)cc2)NC(=O)[C@H](CC(C)C)NC(=O)[C@H](Cc2c[nH]c3ccccc23)NC(=O)[C@H](CC(=O)O)NC(=O)[C@H](Cc2ccc(OCC(=O)O)cc2)NC(=O)[C@H](CCCCNC(=N)N)NC(=O)CSC[C@@H](C(=O)NCCOCCOCC(=O)N[C@@H](CCN)C(=O)NCCCCCCCCCCC(=O)O)NC(=O)[C@H](CCCCN)NC(=O)[C@H](C(C)C)NC(=O)[C@H](CC2CCCCC2)NC(=O)[C@H](CCN)NC(=O)[C@@H](CC(C)C)NC(=O)[C@H](C)N(C)C1=O (stereo partly drawn) [Example 2184] ({CH2CO}-[hArg]Y(Carboxymethyl)DWL[Bip][Ile(3ξ)][NMeA][dL][Dab][Cha]VKC[AEEA][Dab][Aun]-OH; thioether N-14) | 7.52
4 | Cc1cccc(C[C@@H]2NC(=O)[C@H](CC(=O)O)NC(=O)[C@H](Cc3ccc(C(=O)O)cc3)NC(=O)[C@H](Cc3ccncc3)NC(=O)CSC[C@@H](C(=O)N[C@@H](CCN)C(=O)NCCOCCOCC(=O)NCCCCCCCCCCCCC(=O)O)NC(=O)[C@H](CCC(=O)O)NC(=O)[C@H](C(C)(C)O)NC(=O)[C@H](CC3CCCCC3)NC(=O)[C@H](CCN)NC(=O)[C@@H](CC(C)C)NC(=O)[C@H](C)N(C)C(=O)[C@H](Cc3ccc(C(=O)O)cc3)NC(=O)[C@H](Cc3ccc(-c4ccccc4)cc3)NC(=O)[C@H](Cc3ccc(C(=O)O)cc3)NC2=O)c1 [Example 1104] ({CH2CO}-[4Pal][Phe(4-COOH)]D[Phe(3-Me)][Phe(4-COOH)][Bip][Phe(4-COOH)][NMeA][dL][Dab][Cha][Val(3-OH)]EC[Dab][AEEA]-{NH(CH2)12COOH}; thioether N-14) | 6.25
5 | Cc1cccc(C[C@@H]2NC(=O)[C@H](CC(=O)O)NC(=O)[C@H](Cc3ccc(C(=O)O)cc3)NC(=O)[C@H](Cc3ccc(C#N)cc3)NC(=O)CSC[C@@H](C(=O)N[C@@H](CCN)C(=O)NCCCCCCCCCCC(=O)O)NC(=O)[C@H](CO)NC(=O)[C@H](C(C)(C)O)NC(=O)[C@H](CC3CCCCC3)NC(=O)[C@H](CCN)NC(=O)[C@@H](CC(C)C)NC(=O)[C@H](C)N(C)C(=O)[C@H](Cc3ccc(OCC(=O)O)cc3)NC(=O)[C@H](Cc3ccc(-c4ccccc4)cc3)NC(=O)[C@H](Cc3ccc(OCC(=O)O)cc3)NC2=O)c1 [Example 1002] ({CH2CO}-[Phe(4-CN)][Phe(4-COOH)]D[Phe(3-Me)]Y(Carboxymethyl)[Bip]Y(Carboxymethyl)[NMeA][dL][Dab][Cha][Val(3-OH)]SC[Dab][Aun]-OH; thioether N-14) | 7.96
6 | Cc1cccc(C[C@@H]2NC(=O)[C@H](CC(=O)O)NC(=O)[C@H](Cc3ccc(OCC(=O)O)cc3)NC(=O)[C@H](CCCNC(=N)N)NC(=O)CSC[C@@H](C(=O)N[C@@H](CCN)C(=O)NCCCCCCCCCCC(=O)O)NC(=O)[C@H]([C@@H](C)O)NC(=O)[C@H](C(C)C)NC(=O)[C@H](CC3CCCCC3)NC(=O)[C@H](CCN)NC(=O)[C@@H](CC(C)C)NC(=O)[C@H](C)N(C)C(=O)[C@H](CCCNC(N)=O)NC(=O)[C@H](Cc3ccc(-c4ccccc4)cc3)NC(=O)[C@H](Cc3ccc(O)cc3)NC2=O)c1 [Example 1355] ({CH2CO}-RY(Carboxymethyl)D[Phe(3-Me)]Y[Bip][Cit][NMeA][dL][Dab][Cha]VTC[Dab][Aun]-OH; thioether N-14) | 8.29
7 | Cc1cccc(C[C@@H]2NC(=O)[C@H](CC(=O)O)NC(=O)[C@H](Cc3ccc(OCC(=O)O)cc3)NC(=O)[C@H]([C@@H](C)O)NC(=O)CSC[C@@H](C(=O)N[C@@H](CCCN)C(=O)NCCOCCOCC(=O)NCCCCCCCCCCC(=O)O)NC(=O)[C@H](CCC(=O)O)NC(=O)[C@H](C(C)C)NC(=O)[C@H](CC3CCCCC3)NC(=O)[C@H](CCN)NC(=O)[C@@H](CC(C)C)NC(=O)[C@H](C)N(C)C(=O)[C@H](Cc3ccc(OCC(=O)O)cc3)NC(=O)[C@H](Cc3ccc(-c4ccccc4)cc3)NC(=O)[C@H](Cc3ccc(OCC(=O)O)cc3)NC2=O)c1 [Example 1373] ({CH2CO}-TY(Carboxymethyl)D[Phe(3-Me)]Y(Carboxymethyl)[Bip]Y(Carboxymethyl)[NMeA][dL][Dab][Cha]VEC[Orn][AEEA][Aun]-OH; thioether N-14) | 7.50
8 | Cc1cccc(C[C@@H]2NC(=O)[C@H](CC(=O)O)NC(=O)[C@H](Cc3ccc(OCC(=O)O)cc3)NC(=O)[C@H](C(C)O)NC(=O)CSC[C@@H](C(=O)N(C)[C@@H](CC(N)=O)C(=O)NCCCCCCCCCCC(=O)O)NC(=O)[C@H](CO)NC(=O)[C@H](C(C)C)NC(=O)[C@H](CC3CCCCC3)NC(=O)[C@H](CCN)NC(=O)[C@@H](CC(C)C)NC(=O)[C@H](C)N(C)C(=O)[C@H](C(C)C)NC(=O)[C@H](Cc3ccc(-c4ccccc4)cc3)NC(=O)[C@H](C(C)C)NC2=O)c1 (stereo partly drawn) [Example 2302] ({CH2CO}-[Thr(3ξ)]Y(Carboxymethyl)D[Phe(3-Me)]V[Bip]V[NMeA][dL][Dab][Cha]VSC[NMeN][Aun]-OH; thioether N-14) | 7.55

Now from value to compound:

Row | pIC50 | SMILES
9 | 7.33 | CCC(C)[C@@H]1NC(=O)[C@H](Cc2ccc(-c3ccccc3)cc2)NC(=O)[C@H](C(C)C)NC(=O)[C@H](Cc2c[nH]c3ccccc23)NC(=O)[C@H](CC(=O)O)NC(=O)[C@H](Cc2ccc(OCC(=O)O)cc2)NC(=O)[C@H](C(C)O)NC(=O)CSC[C@@H](C(=O)N[C@@H](CCCN)C(=O)N[C@@H](CCC(=O)NCCCCCCCCCCCC(=O)O)C(=O)O)NC(=O)[C@H](C(C)O)NC(=O)[C@H](C(C)C)NC(=O)[C@H](CC2CCCCC2)NC(=O)[C@H](CCN)NC(=O)[C@@H](CC(C)C)NC(=O)[C@H](C)N(C)C1=O (stereo partly drawn) [Example 2418] ({CH2CO}-[Thr(3ξ)]Y(Carboxymethyl)DWV[Bip][Ile(3ξ)][NMeA][dL][Dab][Cha]V[Thr(3ξ)]C[Orn][γGlu][12Ado]-OH; thioether N-14)
10 | 7.28 | CC(C)C[C@@H]1NC(=O)[C@H](Cc2c[nH]c3ccccc23)NC(=O)[C@H](CC(=O)O)NC(=O)[C@H](Cc2ccc(C(=O)O)cc2)NC(=O)[C@H](Cc2ccc(OCC(=O)O)cc2)NC(=O)CSC[C@@H](C(=O)NCCOCCOCC(=O)NCCCCCCCCCCC(=O)O)NC(=O)[C@H](CO)NC(=O)[C@H](C(C)C)NC(=O)[C@H](CC2CCCCC2)NC(=O)[C@H](CCN)NC(=O)[C@@H](CC(C)C)NC(=O)[C@H](C)N(C)C(=O)[C@H](Cc2ccc(O)cc2)NC(=O)[C@H](Cc2ccc(-c3ccccc3)cc2)NC1=O [Example 2228] ({CH2CO}-Y(Carboxymethyl)[Phe(4-COOH)]DWL[Bip]Y[NMeA][dL][Dab][Cha]VSC[AEEA][Aun]-OH; thioether N-14)
11 | 7.97 | CC(C)C[C@@H]1NC(=O)[C@H](Cc2c[nH]c3ccccc23)NC(=O)[C@H](CC(=O)O)NC(=O)[C@H](Cc2ccc(C(=O)O)cc2)NC(=O)[C@H](Cc2ccc(OCC(=O)O)cc2)NC(=O)CSC[C@@H](C(=O)NCC(=O)N[C@@H](CCCN)C(=O)NCC(=O)NCCCCCCCCCCC(=O)O)NC(=O)[C@H](CO)NC(=O)[C@H](C(C)C)NC(=O)[C@H](CC2CCCCC2)NC(=O)[C@H](CCN)NC(=O)[C@@H](CC(C)C)NC(=O)[C@H](C)N(C)C(=O)[C@H](C(C)C)NC(=O)[C@H](Cc2ccc(-c3ccccc3)cc2)NC1=O [Example 1030] ({CH2CO}-Y(Carboxymethyl)[Phe(4-COOH)]DWL[Bip]V[NMeA][dL][Dab][Cha]VSCG[Orn]G[Aun]-OH; thioether N-14)
12 | 7.63 | CC(C)C[C@@H]1NC(=O)[C@H](Cc2c[nH]c3ccccc23)NC(=O)[C@H](CC(=O)O)NC(=O)[C@H](Cc2ccc(C(=O)O)cc2)NC(=O)[C@H](Cc2ccc(OCC(=O)O)cc2)NC(=O)CSC[C@@H](C(=O)N[C@@H](CCCN)C(=O)NCCOCCOCC(=O)NCCCCCCCCCCC(=O)O)NC(=O)[C@H](CO)NC(=O)[C@H](C(C)C)NC(=O)[C@H](CC2CCCCC2)NC(=O)[C@H](CCCCN)NC(=O)[C@@H](CC(C)C)NC(=O)[C@H](C)N(C)C(=O)[C@H](C(C)C)NC(=O)[C@H](Cc2ccc(-c3ccccc3)cc2)NC1=O [Example 2133] ({CH2CO}-Y(Carboxymethyl)[Phe(4-COOH)]DWL[Bip]V[NMeA][dL]K[Cha]VSC[Orn][AEEA][Aun]-OH; thioether N-14)
